Measurements as given in PubChem BioAssay AID330 (DTP/NCI, 2004).
Values joined by “and” are separate entries in the source; they are usually repeats but may differ in a detail not shown here. Identical values can stand only once. Inconclusive results and toxic doses are left out. The calls were made as follows: active = survival T/C of 150% or more; inactive = T/C below 125% in these data.

Test system: P388 leukemia ip, CD2F1 mice, survival T/C
Experiment: NCI In Vivo Anticancer Drug Screen. Data for tumor model P388 Leukemia (intraperitoneal) in CD2F1 (CDF1) mice
Settings: endpoint: median survival time, higher = longer survival
Summary of the method: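 Mice carrying the transplanted tumor received test compound or vehicle. Survival was recorded in each group, and the value is the treated-group measurement divided by that of the vehicle-treated control group.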

[1] = dose: 50.0 mg/kg/injection, schedule: Q01DX005 (ip), vehicle: Klucel (hydroxypropylcellulose) (HPC)
[2] = dose: 100.0 mg/kg/injection, schedule: Q01DX005 (ip), vehicle: Klucel (hydroxypropylcellulose) (HPC)
[3] = dose: 200.0 mg/kg/injection, schedule: Q01DX005 (ip), vehicle: Klucel (hydroxypropylcellulose) (HPC)

Measured: T/C

COc1c(C(C)C)ccc2c1CCC1C3=C(CCC21C)C(=O)OC3 (stereo not drawn)
inactive: dose: 6.25 mg/kg/injection, schedule: Q01DX009 (ip), vehicle: DMSO 109 % of control | dose: 12.5 mg/kg/injection, schedule: Q01DX009 (ip), vehicle: DMSO 100 % of control | dose: 25.0 mg/kg/injection, schedule: Q01DX009 (ip), vehicle: DMSO 106 % of control

COc1cccc2c1C(=O)c1c(O)c3c(c(O)c1C2=O)CC(O)(c1csc(C)n1)CC3O (stereo not drawn)
inactive: dose: 1.56 mg/kg/injection, schedule: Q01DX009 (ip), vehicle: other 105 % of control | dose: 3.13 mg/kg/injection, schedule: Q01DX009 (ip), vehicle: other 96 % of control | dose: 6.25 mg/kg/injection, schedule: Q01DX009 (ip), vehicle: other 100 % of control | dose: 12.5 mg/kg/injection, schedule: Q01DX009 (ip), vehicle: other 100 % of control | dose: 25.0 mg/kg/injection, schedule: Q01DX009 (ip), vehicle: other 99 % of control and 107 % of control | dose: 50.0 mg/kg/injection, schedule: Q01DX009 (ip), vehicle: other 108 % of control | dose: 100.0 mg/kg/injection, schedule: Q01DX009 (ip), vehicle: other 107 % of control

C=C1C(=O)O[C@@H]2[C@H]3C(C)=CC[C@@H](OC(=O)/C(C)=C/C)[C@]3(C)[C@H](O)C[C@@H]12
inactive: dose: 7.0 mg/kg/injection, schedule: Q01DX005 (ip), vehicle: Klucel (hydroxypropylcellulose) (HPC) 100 % of control | dose: 14.0 mg/kg/injection, schedule: Q01DX005 (ip), vehicle: Klucel (hydroxypropylcellulose) (HPC) 100 % of control | dose: 28.0 mg/kg/injection, schedule: Q01DX005 (ip), vehicle: Klucel (hydroxypropylcellulose) (HPC) 106 % of control | dose: 56.0 mg/kg/injection, schedule: Q01DX005 (ip), vehicle: Klucel (hydroxypropylcellulose) (HPC) 105 % of control

CCC(c1cccc(O)c1)C(CC)c1cccc(O)c1 (stereo not drawn)
inactive: [1] 102 % of control | [2] 102 % of control | [3] 103 % of control

CC(=O)NC(Cc1cccs1)C(=O)O (stereo not drawn)
inactive: dose: 50.0 mg/kg/injection, schedule: Q01DX009 (ip), vehicle: saline 93 % of control | dose: 100.0 mg/kg/injection, schedule: Q01DX009 (ip), vehicle: saline 101 % of control | dose: 200.0 mg/kg/injection, schedule: Q01DX009 (ip), vehicle: saline 101 % of control

Cc1cc(=S)c2cc3c(cc2[nH]1)OCO3
inactive: [1] 107 % of control | [2] 101 % of control | [3] 103 % of control
